What was measured:
C5L2 protein = biological target: T1, C5L2 protein (Homo sapiens, UniProt Q9P296); test: Ligand screening: binding of radio-labeled candidate compound to cell membrane fraction of 293 cells transformed with pcDNAC5L2 versus empty-vector control; details: final concentration of CGS21680 100 nM; 37° C. for 30 minutes; supernatant counted by liquid scintillation
T1 construct: Myc (C); His (C); expressed in transfected cells; host or cells: 293 cell line (ATCC CRL-1573), cell membrane fraction
Experimental: The transformants were incubated for 48 to 72 hours. The incubated cells were washed with PBS and, then, 1 ml/plate of EDTA-containing PBS (EDTA concentration: 0.01%) was added to the washed cells. Using Cell Scraper-L (catalog number: MS-93300) (manufactured and sold by Sumitomo Bakelite Co., Ltd., Japan), the cells were scraped off from the plate and washed twice with PBS. The washed cells were suspended in 0.5 ml of 25 mM HEPES solution (pH 7.4) containing Complete™ Protease Inhibitor Cocktail Set (manufactured and sold by Boehringer Mannheim Corporation, Germany), and the resultant cell suspension was transferred to a microtube. […]
The cell membrane fractions were prepared from the 293 cells (i.e., cells of 293 cell line) transformed with pcDNAC5L2 (i.e., C5L2 transformants) and the 293 cells transformed with pcDNA3.1/Myc-His(+)B vector (i.e., control) in substantially the same manner as in Example 5. […] Subsequently, the radioactivity of the prepared sample was measured by means of a scintillation counter (Beckman LS6000LL, manufactured and sold by Beckman Instruments, Inc., U.S.A.). The amount of the unbound candidate compound was determined from the measured radioactivity.

[1] = biological target: T2, C5L2 protein-expressing CHO cells (Homo sapiens, UniProt Q9P296); test: Screening of a substance which antagonizes a ligand: chemotaxis assay of CHO cells transformed with C5L2 toward LPS-administered rat serum; format: cell-based; details: NECA final concentration 100 μM in upper and lower compartments; LPS-administered rat serum as ligand source
T2 construct: Myc (C); His (C); expressed in transfected cells; host or cells: CHO cells (ATCC CCL-61), Geneticin-selected
Experimental: A chemotaxis Assay was Conducted with respect to the CHO cells transformed with C5L2. […] The chemotaxis of the cells in the absence of the antagonist candidate substance against a ligand was compared with that in the presence of the antagonist candidate substance against a ligand.

T1 sequence (Q9P296 whole entry): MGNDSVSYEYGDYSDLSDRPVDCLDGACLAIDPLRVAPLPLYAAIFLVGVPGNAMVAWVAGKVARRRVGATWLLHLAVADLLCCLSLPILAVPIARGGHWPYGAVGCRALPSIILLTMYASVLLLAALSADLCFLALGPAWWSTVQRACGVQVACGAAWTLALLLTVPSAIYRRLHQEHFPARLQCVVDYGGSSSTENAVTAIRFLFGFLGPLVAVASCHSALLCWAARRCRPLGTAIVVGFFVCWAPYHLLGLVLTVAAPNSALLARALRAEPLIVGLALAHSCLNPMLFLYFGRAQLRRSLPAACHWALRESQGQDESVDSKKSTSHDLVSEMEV
T2 sequence (Q9P296 whole entry): as above

| Compound | radioactivity of unbound candidate compound, C5L2 transformants versus control cells (C5L2 protein) | chemotaxis of the cells in the presence versus absence of the antagonist candidate substance [1] |
| --- | --- | --- |
| CCNC(=O)[C@H]1O[C@@H](n2cnc3c(N)nc(NCCc4ccc(CCC(=O)O)cc4)nc32)[C@H](O)[C@@H]1O [CGS21680] | no difference in the radioactivity was observed |  |
| CCNC(=O)[C@H]1O[C@@H](n2cnc3c(N)ncnc32)[C@H](O)[C@@H]1O [NECA, 5′-(N-ethylcarboxyamide)adenosine] |  | no difference was observed |

Reference: patent publication US6777204B1, “Receptor protein and method for diagnosing inflammatory diseases by using the same” (Asahi Kasei Kabushiki Kaisha, priority 1998, dated 2004)
